pIC50: −log10 of the molar value.
The compounds below were run on P. falciparum 3D7 growth, pLDH absorbance (assay: P. falciparum 3D7 growth inhibition, dose response, strain 3D7 (AID 2305)).

Question: How did the pIC50 turn out when `O=C(Nc1cccc(-c2ccc(CN3CCCC3)cc2)c1)c1ccc(Cl)cc1` was run?
Answer: Its pIC50 is 6.37.

Question: `Cc1cc(NCCC(=O)NCCOc2ccccc2)nc(NCCc2ccc(F)cc2)n1` was tested. Which pIC50 did it give?
Answer: The pIC50 was 6.03.

Question: With `Cc1cc(NC(=O)c2cccs2)ccc1OC1CCN(Cc2ccc(C#N)cc2)C1` (stereo not given) as the compound, how does the pIC50 read?
Answer: Its pIC50 is 6.07.

Question: With `O=C1c2ccccc2-n2c1nc1ccccc1c2=O` as the compound, how does the pIC50 read?
Answer: The pIC50 was 6.07.

Question: `CCCCCCn1c(Sc2ccc(C#N)c([N+](=O)[O-])c2)nnc1-c1ccc(Cl)cc1` was tested. Which pIC50 did it give?
Answer: Its pIC50 is 6.08.

Question: `COCCn1c(SC(C)C(=O)Nc2cc(C(F)(F)F)ccc2Cl)nc2ccccc2c1=O` (stereo not given) was tested. Which pIC50 did it give?
Answer: Its pIC50 is 6.20.

Question: How did the pIC50 turn out when `CC1(CCN2CCC(c3c[nH]c4cnccc34)CC2)CCCc2c(Br)cccc2C1=O` (stereo not given) was run?
Answer: Its pIC50 is 6.70.

Question: `Nc1ccnc2ccc(OCCCCCCc3ccccc3)cc12` was tested. Which pIC50 did it give?
Answer: Its pIC50 is 6.28.

Question: How did the pIC50 turn out when `CC(C)CC1(C(=O)OC(C)(C)C)CC(C(=O)OC(C)(C)C)C(c2cccs2)N1C(=O)c1ccc(C(C)(C)C)cc1` (stereo not given) was run?
Answer: The pIC50 was 6.85.

Question: With `Cc1cc(NCCCOc2ccc(Cl)cc2)nc(NCc2ccccc2)n1` as the compound, how does the pIC50 read?
Answer: The pIC50 was 6.11.

Question: How did the pIC50 turn out when `Cc1cccc2[nH]cc(C3CCN(CCC4CCN(C(=O)/C=C/c5ccc(Cl)c(Cl)c5)CC4)CC3)c12` was run?
Answer: The pIC50 was 5.91.

Question: `CN(C)c1cc(NN=Cc2cc(Cl)ccc2O)nc(N(C)C)n1` was tested. Which pIC50 did it give?
Answer: Its pIC50 is 6.15.

Question: With `COc1ccc(C2=CCN(c3ccc(Cl)c(Cl)c3)C2=O)cc1OCCN1CCCCC1` as the compound, how does the pIC50 read?
Answer: The pIC50 was 6.11.

Question: `O=C(Nc1ccc(S(=O)(=O)N2CCCCC2)cc1)c1cc(-c2cc(Cl)ccc2O)n[nH]1` was tested. Which pIC50 did it give?
Answer: Its pIC50 is 6.09.

Question: With `O=C(NC1CC1)c1ccc(N2CCN(Cc3ccc(Cl)cc3)CC2)nc1` as the compound, how does the pIC50 read?
Answer: Its pIC50 is 5.87.

Question: With `c1ccc(CN2CCC(NCc3ccccc3-c3cccc(CNCc4ccc5c(c4)OCO5)c3)CC2)cc1` as the compound, how does the pIC50 read?
Answer: The pIC50 was 6.24.

Question: How did the pIC50 turn out when `Cc1cc(CN2CC[C@H](NC(=O)c3ccc(Cl)c(Cl)c3)C2)ccc1OC1CCN(C)C1` (stereo not given in full) was run?
Answer: The pIC50 was 6.02.

Question: How did the pIC50 turn out when `O=C(Nc1ccc(Cn2ncc(N3CCCNCC3)c(Cl)c2=O)cc1)Nc1ccc(F)cc1[N+](=O)[O-]` was run?
Answer: Its pIC50 is 5.96.

Question: `Cc1ccc(C(NC(=O)C2CCCCC2)c2ccc3cccnc3c2O)cc1` (stereo not given) was tested. Which pIC50 did it give?
Answer: Its pIC50 is 6.02.

Question: With `O=C(Nc1cccc(C(F)(F)F)c1)Nc1ccc(Cl)c(Cl)c1` as the compound, how does the pIC50 read?
Answer: The pIC50 was 6.13.

Question: `COc1ccccc1-n1ccnc1SCC(=O)Nc1cc(C(F)(F)F)ccc1Cl` was tested. Which pIC50 did it give?
Answer: Its pIC50 is 8.00.

Question: How did the pIC50 turn out when `CNc1cc(-c2ccc3ccnc(N)c3c2)nc(N)n1` was run?
Answer: The pIC50 was 6.92.

Question: With `Cc1ccc(NC(=O)N2CCC(n3c(-c4ccccc4)nc4cccnc43)CC2)cc1F` as the compound, how does the pIC50 read?
Answer: The pIC50 was 6.28.

Question: `CS(=O)(=O)Nc1ccc2[nH]cc(C3CCN(CC4CCC(NC(=O)/C=C/c5ccc(Cl)c(Cl)c5)CC4)CC3)c2c1` (stereo not given) was tested. Which pIC50 did it give?
Answer: The pIC50 was 6.07.

Question: `O=C(/C=C/c1ccc(Cl)c(Cl)c1)NCCCCCN1CC[C@H](c2c[nH]c3ccccc23)[C@@H](O)C1` was tested. Which pIC50 did it give?
Answer: Its pIC50 is 6.10.

Question: With `O=C(NCC1CCC(C(=O)NCc2cccc3ccccc23)CC1)c1ccc(O)c(-c2ccc(Cl)c(Cl)c2)c1` (stereo not given) as the compound, how does the pIC50 read?
Answer: Its pIC50 is 6.12.

Question: With `Cc1cccc2[nH]c(-c3ccc(-c4cccc(NCc5cn6cccnc6n5)c4)cc3)nc12` as the compound, how does the pIC50 read?
Answer: Its pIC50 is 6.10.

Question: With `O=C(CCN(Cc1ccco1)c1nc(-c2ccc(F)cc2)nc2ccccc12)NC1CC1` as the compound, how does the pIC50 read?
Answer: The pIC50 was 5.80.

Question: How did the pIC50 turn out when `O=C(C=Cc1ccc(Cl)c(Cl)c1)NC1CCN(CCc2ccccc2)CC1` was run?
Answer: The pIC50 was 6.23.

Question: `CCOc1c(CNCCCCCCNCc2ccc3ccccc3c2OCC)ccc2ccccc12` was tested. Which pIC50 did it give?
Answer: The pIC50 was 6.12.

Question: With `O=C1CCCN1CCCNCc1ccc(-c2ccc(-c3nc4ccc(F)cc4[nH]3)s2)cc1` as the compound, how does the pIC50 read?
Answer: Its pIC50 is 6.05.

Question: `Clc1cccc(Nc2ccc3c(N4CCCCC4)ncnc3n2)c1` was tested. Which pIC50 did it give?
Answer: Its pIC50 is 6.24.

Question: `N#Cc1nc2ccc(OCCN(Cc3ccccc3C(F)(F)F)c3ccc(C#N)c(C(F)(F)F)c3)cc2s1` was tested. Which pIC50 did it give?
Answer: Its pIC50 is 6.07.

Question: `Cc1cc(N[C@@H](CC(C)C)C(=O)NCCOc2ccccc2)nc(NCCOc2ccccc2)n1` was tested. Which pIC50 did it give?
Answer: The pIC50 was 5.83.

Question: `CCc1ccccc1-c1csc(C(=O)NCC2CCN(Cc3ccc(C(C)(C)C)cc3)C2)c1` (stereo not given) was tested. Which pIC50 did it give?
Answer: Its pIC50 is 5.94.

Question: With `CN(CCN)Cc1cccc(-c2ccc(-c3nc4ccc(C(F)(F)F)cc4[nH]3)s2)c1` as the compound, how does the pIC50 read?
Answer: Its pIC50 is 6.00.

Question: How did the pIC50 turn out when `Cc1ccc(C2CCN(CCCCNC(=O)c3ccc(NC(=O)c4ccc(Cl)cc4)cc3)CC2)c(OCC(F)(F)F)c1` was run?
Answer: The pIC50 was 6.55.

Question: `CC(Nc1ccc2c(c1)CCC2)C(=O)Nc1cc(C(F)(F)F)ccc1N1CCOCC1` (stereo not given) was tested. Which pIC50 did it give?
Answer: The pIC50 was 7.05.

Question: With `N#Cc1cccc(NC(=O)NC2CCN(CCCCCNC(=O)/C=C/c3ccc(Cl)c(Cl)c3)CC2)c1` as the compound, how does the pIC50 read?
Answer: The pIC50 was 6.15.

Question: With `Cc1ccc(C(C)C)c(Oc2cnc(NC(CO)c3ccccc3)nc2N)c1` (stereo not given) as the compound, how does the pIC50 read?
Answer: The pIC50 was 6.02.

Question: With `CC[C@H](C)CNC(=O)c1ccnc(-c2ccc(CNC3Cc4ccccc4C3)cc2)c1` as the compound, how does the pIC50 read?
Answer: The pIC50 was 6.24.

Question: How did the pIC50 turn out when `CCCn1c(SCC(=O)Nc2cc(C(F)(F)F)ccc2Cl)n[nH]c1=O` was run?
Answer: The pIC50 was 6.66.

Question: With `O=[N+]([O-])c1cccc(NC(=S)N2CCCN(Cc3ccc(F)cc3F)CC2)c1` as the compound, how does the pIC50 read?
Answer: The pIC50 was 6.08.

Question: `CCN(CC)CCOc1ccc(C(O)(C#CC(O)(c2ccccc2)c2ccc(OCCN(CC)CC)cc2)c2ccccc2)cc1` (stereo not given) was tested. Which pIC50 did it give?
Answer: Its pIC50 is 5.88.

Question: With `Cc1ccc2[nH]c3c(NCCCN4CCOCC4)ncnc3c2c1` as the compound, how does the pIC50 read?
Answer: Its pIC50 is 6.03.

Question: `Nc1nccc(-c2ccc3c(-c4cccc(F)c4)cnc(N)c3c2)n1` was tested. Which pIC50 did it give?
Answer: The pIC50 was 5.99.

Question: How did the pIC50 turn out when `Cn1cnc(CCNC(=O)c2ccc(-c3ccc(-c4nc5ccc(C(F)(F)F)cc5[nH]4)s3)cc2)c1` was run?
Answer: Its pIC50 is 6.40.

Question: How did the pIC50 turn out when `O=C(CCc1ccccc1)N[C@H](Cc1c[nH]c2ccccc12)C(=O)N1CCC(NCc2ccc3c(c2)Cc2ccccc2-3)CC1` was run?
Answer: The pIC50 was 6.04.

Question: With `COc1ccc2nccc([C@@H](O)CN3CCC(NC[C@H](Cc4ccccc4)NC(=O)OC(C)(C)C)CC3)c2c1` as the compound, how does the pIC50 read?
Answer: The pIC50 was 6.64.

Question: How did the pIC50 turn out when `O=C(/C=C/c1ccc(Cl)c(Cl)c1)NCCCCCN1CCC(NC(=O)Nc2cc(F)cc(F)c2)CC1` was run?
Answer: Its pIC50 is 6.10.

Question: How did the pIC50 turn out when `CC[C@H]1CN2CC[C@H]1C[C@H]2[C@H](O)c1cc(-c2ccc(Cl)c(Cl)c2)nc2ccc(OC)cc12` was run?
Answer: Its pIC50 is 6.92.

Question: With `Cc1ccccc1C1CCN(C2CCC(NC(=O)c3ccc(-c4cccs4)s3)CC2)CC1` (stereo not given) as the compound, how does the pIC50 read?
Answer: The pIC50 was 5.99.

Question: With `COc1ccc(CCNC(=O)c2cc3c(=O)n4cccc(C)c4nc3n(C)c2=N)cc1` as the compound, how does the pIC50 read?
Answer: The pIC50 was 6.12.

Question: With `Nc1nc(N)c2c(n1)CCC(c1ccccc1)C2` (stereo not given) as the compound, how does the pIC50 read?
Answer: The pIC50 was 6.00.

Question: `Cc1ncc([N+](=O)[O-])n1CCOC(=O)NC(Nc1ccc(Br)cc1)C(Cl)(Cl)Cl` (stereo not given) was tested. Which pIC50 did it give?
Answer: Its pIC50 is 6.02.

Question: How did the pIC50 turn out when `CN1CCC(N2CCN(Cc3cccc(-c4ccc(-c5nc6ccccc6[nH]5)cc4)c3)CC2)CC1` was run?
Answer: Its pIC50 is 6.80.

Question: `COc1ccc(S(=O)(=O)N(c2cc(Br)cc3c2OCC3)S(=O)(=O)c2ccc(OC)c(N3CCN(C)CC3)c2)cc1N1CCN(C)CC1` was tested. Which pIC50 did it give?
Answer: The pIC50 was 5.93.

Question: `O=C(Nc1ccc(-c2nc3ccccc3[nH]2)cc1)C1CCCN(CC2CC2)C1` (stereo not given) was tested. Which pIC50 did it give?
Answer: The pIC50 was 6.02.

Question: How did the pIC50 turn out when `COC(=O)c1cccc(CNCc2ccc(-c3ccc(-c4nc5ccc(F)cc5[nH]4)s3)cc2)c1` was run?
Answer: Its pIC50 is 6.23.

Question: How did the pIC50 turn out when `COc1ccc2nccc(NN=Cc3ccncc3)c2c1` was run?
Answer: The pIC50 was 6.24.

Question: With `CCOc1cc(C(=O)NCCCN2CCN(c3cccc(Cl)c3)CC2)ccc1-c1nc2cc(Cl)c(F)cc2[nH]1` as the compound, how does the pIC50 read?
Answer: Its pIC50 is 6.06.

Question: With `O=C(/C=C/c1cccc(Cl)c1)Nc1ccc2nc(CN3CCCC3)ccc2c1` as the compound, how does the pIC50 read?
Answer: Its pIC50 is 6.59.

Question: `CC(=O)Nc1ccc(C#Cc2ccc(-c3c(C)[nH]c(C)c(Cl)c3=O)cc2)cc1` was tested. Which pIC50 did it give?
Answer: The pIC50 was 6.34.

Question: How did the pIC50 turn out when `COc1ccc(CNCc2ccc(-c3ccc(-c4nc5ccccc5[nH]4)cc3)cc2)cc1` was run?
Answer: Its pIC50 is 6.62.

Question: How did the pIC50 turn out when `CCCCN(C)CC#Cc1ccc(-c2ccc3[nH]c(C)c(Br)c(=O)c3c2)cn1` was run?
Answer: The pIC50 was 6.19.

Question: With `COc1cc2ccccc2cc1CNCCCCCCNCc1cc2ccccc2cc1OC` as the compound, how does the pIC50 read?
Answer: The pIC50 was 6.14.

Question: With `COc1ccc(-c2ccc(NC(=O)c3ccc(C#N)cc3)cc2)cc1CN1CCC(O)CC1` as the compound, how does the pIC50 read?
Answer: The pIC50 was 6.24.

Question: `Cc1ccccc1Nc1cc(Nc2ccccc2C)c2ccccc2n1` was tested. Which pIC50 did it give?
Answer: Its pIC50 is 6.11.

Question: With `CCCc1cc(NCC)nc(Nc2ccc(F)cc2)n1` as the compound, how does the pIC50 read?
Answer: Its pIC50 is 5.99.

Question: With `N#CC(c1ccc(Br)cc1)c1ccc2c(C(F)(F)F)cc(C(F)(F)F)nc2n1` (stereo not given) as the compound, how does the pIC50 read?
Answer: Its pIC50 is 6.36.
